In data set [1] the test system is tobacco budworm (Heliothis virescens [Fabricius]). In words: insecticidal activity against tobacco budworm, treated artificial diet surface. The data set is classed as in vivo. To be noted: 0.0025 millimoles on the surface of the diet; second instar larvae; five-day exposure; 7200 min. On the procedure: Candidate insecticides are evaluated for activity against tobacco budworm (Heliothis virescens [Fabricius]) by applications to the surface of a wheat germ-based artificial insect diet. Solutions of the candidate insecticides are prepared for testing by diluting a standard 50 millimolar DMSO solution of each candidate insecticide with DMSO, then further diluting with a 1:1 water/acetone solution (V/V). Forty microliters of this solution of calculated concentration is then pipetted onto the surface of the diet in each of six containers, to provide six replicates for each rate of application. Once treated, the contents of the containers are allowed to dry, leaving the calculated concentration ( in millimoles) of candidate insecticide on the surface of the diet. In each container is placed one second instar tobacco budworm […]. The container is sealed with a transparent film, and then held in a growth chamber for five days. After the five-day exposure period the insecticidal activity of the candidate insecticide is recorded as percent mortality when compared to the total number of insects infested. Insecticidal activity at a concentration of candidate insecticide of 0.0025 millimoles on the surface of the diet is given for various compounds of this invention in Table 4.

A short description of data set [2]: photostability under Suntest CPS illuminator (filtered xenon lamp), HPLC. To be noted: photodegradation of thin film on glass coverslips, simulated sunlight (xenon lamp), about 25 °C, 0-96 hours. The data set is classed as physicochemical. On the procedure: Compounds of the present invention were subjected to determinations of their photostability in side-by-side tests with their non-ionic parent analogs. These photostability tests are conducted as follows:
For each compound tested, four glass microscope coverslips (12 mm in diameter) for each illumination period (0, 3, 6, 12, 24, 48, and 96 hours) are spotted with 10 microliters of a one mg/mL acetonitrile or methanol solution of test compound. The solutions are allowed to evaporate leaving a thin film of test compound on each coverslip. The four coverslips representing the zero hour illumination period are placed in a 20 mL scintillation vial. In the vile is placed one mL of acetonitrile, which extracts the test chemical from the coverslip. The solution is then transferred to a two dram vile for analysis by HPLC. The average HPLC peak area generated by this sample defines the initial level of test compound. The remaining coverslips are then placed in the water-cooled chamber of the exposure platform of a Suntest CPS illuminator (Heraeus Instruments GmbH; Bereich Original Hanau, Hersaeusstrasse R-14, Postfach 1563, D-6450 Hanau 1). The exposure platform is covered with a quartz plate and maintained at about 25° C. for the duration of the test. The Suntest CPS illuminator employs a filtered xenon lamp, which provides illumination of a similar spectrum and intensity as sunlight. Four coverslips for each test compound are removed from the illuminator at the end of each illumination period described above. The four coverslips from each of the illumination periods are treated as described above and the acetonitrile extract is analyzed by HPLC. The average HPLC peak area from each of the illumination periods represents a diminished amount of test compound when compared to the initial level of test compound as determined from the zero hour illumination sample. The percents of test compound remaining from each of these illumination periods are used to generate a degradation curve from which a half life in hours is determined for each test compound.

Consider five compounds from USH1996H, “Insecticidal photostable acid salt derivatives of N-benzyl-4-benzhydrolpiperidines” (FMC Corporation, priority 1998, dated 2001).

Where a name gives a salt, the structure may show the parent alone.

With `COC(=O)Nc1ccc(C[N+]2([O-])CCC(C(O)(c3ccc(OC(F)(F)F)cc3)c3ccc(OC(F)(F)F)cc3)CC2)cc1` (centres unmarked) [Compound 16], the “Percent Mortality” value in data set [1] turned out to be 100%. In data set [2], `CCn1nnc(-c2ccc(CN3CCC(C(O)(c4ccc(C(F)(F)F)cc4)c4ccc(C(F)(F)F)cc4)CC3)cc2)n1` [Compound 7] returned a Half-life of 23.0 h. On the same count and under the same terms, next, `CCn1nnc(-c2ccc(CN3CCC(C(O)(c4ccc(C(F)(F)F)cc4)c4ccc(C(F)(F)F)cc4)CC3)cc2)n1` [A, reference compound]: 5.5 h; `CCn1nnc(-c2ccc(C[N+]3([O-])CCC(C(O)(c4ccc(C(F)(F)F)cc4)c4ccc(C(F)(F)F)cc4)CC3)cc2)n1` (centres unmarked) [Compound 33, N-[4-(2-ethyl-2H-tetrazol-5-yl)phenylmethyl]-4-[bis(4-trifluoro-methylphenyl)hydroxymethyl]piperidine N-oxide ethanesulfonic acid salt]: 34.0 h. On the same count and under the same terms, next, `CCn1nnc(-c2ccc(C[N+]3([O-])CCC(C(O)(c4ccc(C(F)(F)F)cc4)c4ccc(C(F)(F)F)cc4)CC3)cc2)n1` (centres unmarked) [B, N-[4-(2-ethyl-2H-tetrazol-5-yl)phenylmethyl]-4-[bis(4-trifluoromethylphenyl)hydroxymethyl]piperidine N-oxide, reference compound]: 13.9 h.
